Source: PubChem BioAssay (NCI)
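Interpolation was linear, between the two tested concentrations surrounding the appropriate level; five concentrations were tested over 48 hours in 96-well plates. GI50 is the concentration that inhibits growth by half. TGI: total growth inhibition.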

Key:
Assay in all cases: NCI anticancer screen, dose series, 48 h
NCI-H460 lung = test system: NCI-H460 lung
A549 NSCLC = test system: A549 NSCLC
786-0 renal = test system: 786-0 renal
UO-31 renal = test system: UO-31 renal
SNB-75 CNS = test system: SNB-75 CNS
M14 melanoma = test system: M14 melanoma
HCT-116 colon = test system: HCT-116 colon
NCI-H23 lung = test system: NCI-H23 lung
MOLT-4 leukemia = test system: MOLT-4 leukemia

SMILES | TGI (NCI-H460 lung) [µM] | TGI (A549 NSCLC) [µM] | TGI (786-0 renal) [µM] | TGI (UO-31 renal) [µM] | TGI (SNB-75 CNS) [µM] | TGI (M14 melanoma) [µM] | TGI (HCT-116 colon) [µM] | TGI (NCI-H23 lung) [µM] | TGI (MOLT-4 leukemia) [µM] | GI50 (NCI-H460 lung) [µM] | GI50 (A549 NSCLC) [µM] | GI50 (786-0 renal) [µM] | GI50 (UO-31 renal) [µM] | GI50 (SNB-75 CNS) [µM] | GI50 (M14 melanoma) [µM] | GI50 (HCT-116 colon) [µM] | GI50 (MOLT-4 leukemia) [µM] | GI50 (NCI-H23 lung) [µM]
CCCCCC[C@@H]1CCC2C(CO)[C@@H](O)CC[C@@H]2C1 (some centres not stated) | 30.4 | 32.1 | 33.5 | 38.7 | 37.6 | 31.3 | 32.1 | 30.8 | 57 |  |  |  |  |  |  |  |  | 
C=CC[C@H](C[C@H](C[C@H](C[C@H](C[C@H](C[C@H](C[C@H](C[C@H](C[C@H](C[C@H](CCCCC)OC)OC)OC)OC)OC)OC)OC)OC)OC)OC | > 100 | > 100 | > 100 | > 100 | > 100 | > 100 | > 100 | > 100 | > 100 |  |  |  |  |  |  |  |  | 
C/C(=N/Nc1ccc([N+](=O)[O-])cc1[N+](=O)[O-])C(CC(C(=O)NCc1ccccc1)/C(C)=N\Nc1ccc([N+](=O)[O-])cc1[N+](=O)[O-])C(=O)NCc1ccccc1 (configuration not stated) | 17.5 | 14.6 | 13.1 | 14.2 | 12.4 | 21.9 | 16.4 | 28.7 |  |  |  |  |  |  |  |  |  | 
CC1SC(c2ccc(F)cc2)N(NC(=O)C(O)c2ccccc2)C1=O (configuration not stated) | > 100 | > 100 | > 100 | > 100 | > 100 | > 100 | > 100 |  | > 100 | > 100 | > 100 | > 100 | > 100 | > 100 | > 100 | > 100 | > 100 | 
O=C1C=CC(=O)c2nc3c(cc21)CCC3 | > 100 | > 100 | 33.4 | > 100 | > 100 | 31 | 28.8 | 64.6 | 33.7 |  |  |  |  |  |  |  |  | 
COc1cc(-c2ccc3cc(OC)c(OC)c(OC)c3c2)cc(OC)c1OC |  | > 100 | > 100 |  |  | > 100 | > 100 | > 100 | > 100 |  | 7.66 | 20.9 |  |  | 9.52 | 11.9 | > 100 | > 100
C=C(C)CCOC(c1ccccc1)(c1ccccc1)c1ccccc1 | > 100 | > 100 | > 100 | > 100 | > 100 | > 100 | 76.6 | > 100 | > 100 |  |  |  |  |  |  |  |  | 
O=C(/C=C/c1ccc([N+](=O)[O-])cc1)c1ccc(NCc2nc3ccccc3[nH]2)cc1 | 5.64 |  | 10.8 | 16.3 | 31.5 | 24 |  | 15.3 | 10.2 |  |  |  |  |  |  |  |  | 
N#C/C(=C\c1cccc(Cl)c1Cl)c1ccccc1 | > 100 | > 100 | 65.2 | > 91.2 | 51.1 | > 100 | > 67.5 | > 72.9 | > 100 |  |  |  |  |  |  |  |  | 
O=C1CCC2(c3ccc(Cl)cc3)Nc3ccncc3N12 (configuration not stated) | > 10 | > 10 | > 10 | > 10 | > 10 | > 10 | > 10 | > 10 | > 10 |  |  |  |  |  |  |  |  | 
Cc1cc2c(C)[nH]nc2c(C(=O)O)c1C | > 100 | > 100 | > 100 | > 100 | > 100 |  | > 100 | > 100 | > 100 |  |  |  |  |  |  |  |  | 
COc1ccc(C)cc1-c1cc(Sc2ccccc2)c(-c2cc(C)ccc2OC)o1 | > 31.6 | > 31.6 | > 31.6 | > 31.6 | > 31.6 | > 31.6 | > 31.6 | > 31.6 | > 31.6 |  |  |  |  |  |  |  |  | 
CC(C)(C)c1cc2c(O)c3cccc4c(=O)c5cccc6c5-c(c34)c2c(c1)c6=O | > 100 | > 100 | > 100 | > 100 | > 100 | > 100 | > 100 | > 100 | > 100 |  |  |  |  |  |  |  |  | 
O=C(Nc1ccccc1-c1nn(C(=S)Nc2ccccc2)c(=S)n(C(=S)Nc2ccccc2)c1=O)C(F)(F)F | > 100 | > 100 | > 100 | 50.3 | > 88.1 | 53.3 | > 51.4 | > 31.6 | > 77.1 |  |  |  |  |  |  |  |  | 
COc1ccc(-c2cn[nH]c2-c2cc(OC)c(OC)c(OC)c2)cc1 | 10.5 | > 38.7 | 7.76 | 15.2 | 33.6 |  | 11.4 | 30.2 | 4.21 | 0.0351 | 0.0346 | 0.0656 | 0.0572 | 0.022 |  | 0.0342 | 0.0457 | 0.044
CN(C)CCn1c2c3ccccc3ccc2c2oc(=O)c3ccccc3c21 | 13.4 | 15.3 | 7.14 | 8.94 | 9.94 | 19.1 | 29.1 | 18.9 | 7.25 |  |  |  |  |  |  |  |  | 
CCOC(=O)C1=C(C(=O)OCC)C2c3ccccc3C=CN2C(C(=O)OCC)=C(SC)S1 (configuration not stated) | > 100 | > 100 | > 100 | > 100 | > 100 | > 100 | > 100 | > 100 | > 100 |  |  |  |  |  |  |  |  | 

SMILES | TGI (NCI-H460 lung) [µM] | TGI (A549 NSCLC) [µM] | TGI (786-0 renal) [µM] | TGI (UO-31 renal) [µM] | TGI (SNB-75 CNS) [µM] | TGI (M14 melanoma) [µM] | TGI (HCT-116 colon) [µM] | TGI (NCI-H23 lung) [µM] | TGI (MOLT-4 leukemia) [µM] | GI50 (NCI-H460 lung) [µM] | GI50 (A549 NSCLC) [µM] | GI50 (786-0 renal) [µM] | GI50 (UO-31 renal) [µM] | GI50 (SNB-75 CNS) [µM] | GI50 (M14 melanoma) [µM] | GI50 (HCT-116 colon) [µM] | GI50 (MOLT-4 leukemia) [µM] | GI50 (NCI-H23 lung) [µM]
c1ccc(NCn2cnc3ccccc32)cc1 | > 100 | > 100 | > 100 | > 100 | > 100 |  | > 100 | > 100 | > 100 |  |  |  |  |  |  |  |  | 
O=S(=O)(N/N=C/c1cccc(/C=N/NS(=O)(=O)c2ccccc2)c1)c1ccccc1 | > 100 | > 100 | > 100 | > 100 | > 100 | > 100 | > 100 | > 100 | > 100 |  |  |  |  |  |  |  |  | 
CC(C)=CCC(O)C1=CC(=O)c2c(O)ccc(O)c2C1=O (configuration not stated) | 7.78 | 17.7 | 1.5 | 2.93 | 11.1 | 2.52 | 2.6 | 2.66 | 0.135 |  |  |  |  |  |  |  |  | 
COC(=O)C(CCCN1C(=O)c2ccccc2C1=O)C(=O)OC | > 100 | > 100 | > 100 | > 100 | > 100 | > 100 | > 100 | > 100 | > 100 |  |  |  |  |  |  |  |  | 
NC(=O)c1ccccc1NC(=O)C(=O)C(C(=O)c1ccc(Cl)c(Cl)c1)C1OC(=O)c2ccccc21 (configuration not stated) |  | > 100 | > 100 |  | 83.2 | > 100 | 39 | > 100 | > 100 |  |  |  |  |  |  |  |  | 
O=C1CN(c2cccc(Cl)c2)C(=O)CN1CCN1CC(=O)N(c2cccc(Cl)c2)CC1=O | > 100 | > 100 | > 100 | > 100 | > 100 | > 100 | > 100 | 71.1 | > 100 |  |  |  |  |  |  |  |  | 
Cc1ccc(/C=C/C(=O)c2cccc3ccccc23)cc1 | 30.7 | 43.2 | 28.2 | 39.7 | 34.6 | 39.5 | 24.6 |  | 67.6 |  |  |  |  |  |  |  |  | 
CC(=O)OCCOCNC(=S)N/N=C(\C)c1cnccn1 | > 100 | > 100 | > 100 | > 100 | > 100 | 54.7 | > 100 | > 100 | > 100 |  |  |  |  |  |  |  |  | 
O=c1c(-c2ccccc2)c2oc(c1-c1ccccc1)CSCc1cccc(c1)CSC2 | > 100 | > 100 | 89.8 | > 100 | 69.1 | > 100 | > 100 | > 100 | > 100 |  |  |  |  |  |  |  |  | 
C/C(CCn1[nH]c(=O)ccc1=O)=N\NC(=O)C(=O)NN | > 100 | > 100 | > 100 | > 100 |  | > 100 |  | > 100 | > 100 |  |  |  |  |  |  |  |  | 
COc1nc(NC2OC(COC(C)=O)C(OC(C)=O)C(OC(C)=O)C2OC(C)=O)c2c(OC(C)=O)cc(=O)oc2n1 (configuration not stated) | 34.1 | > 100 | > 100 | > 100 | > 100 | > 100 | > 100 | > 100 | > 100 |  |  |  |  |  |  |  |  | 
Cc1ccc(/C=C/C(=O)CCN(C)C)cc1 | 65.6 | 38.4 | 32.6 | 33.8 | 35.1 | 38.7 | 33.1 | 79 | 51.7 |  |  |  |  |  |  |  |  | 
CC(=O)NNc1nc(C)c(C(=O)/C=C/c2ccc(NC(C)=O)cc2)s1 | > 100 | > 100 | > 100 | > 100 | > 100 |  |  | > 100 | > 100 |  |  |  |  |  |  |  |  | 
O=C(Oc1ccc(Cl)cc1)c1ccccc1Nc1ccnc(C(F)(F)F)c1 | 35.4 | 52.3 | 9.75 | > 100 |  | 4.53 |  | 8.55 | > 100 | 10.5 | 15.3 | 2.71 | 28.2 |  | 2.12 |  | > 100 | 2.82
CC(=O)O/N=C(/C)c1ccccc1O | > 100 | > 100 | > 100 | > 100 | > 100 | > 100 | > 100 | > 100 | > 100 |  |  |  |  |  |  |  |  | 
Oc1[nH]c2ccccc2c1N=Nc1nc(-c2ccc(Br)cc2)cs1 | 65.8 | 70.8 | 35.8 | 56.2 | 46.6 | 59.2 | > 100 | > 100 | > 100 |  |  |  |  |  |  |  |  | 
